Measurements: patent US11084790B2, “Insoluble complex or solvate thereof, pharmaceutical composition and use thereof” (Fruithy Holdings Limited, priority 2017, dated 2021)

Key:
[1] = Test on the solubility in a simulated body fluid; format: physicochemical
Method: Test on the Solubility in a Simulated Body Fluid
The concentration of the drug dissolved in the PBS buffered solution was determined with an HPLC-a method.

[2] = Test on the solubility in media at different pH; format: physicochemical
Method: Test on the Solubility in Media at Different pH
About 200 mg of solid powders of Preparation Example 10 and Preparation Example 15 were added in a 500 mL phosphate buffered solution at different pH values (50 mmol/L, pH 5.5, pH 6.5, pH 7.4, and pH 8.0) respectively, placed into a dissolution tester, kept at a constant temperature of 37° C., and paddle stirred at 50 rpm for 72 hours. Appropriate amounts of the suspension were taken out at 15 min, 30 min, 45 min, 1 h, 2 h, 4 h, 6 h, 8 h, 24 h, 32 h, 48 h, and 72 h respectively, and centrifuged immediately (15000 rpm, 5 min). The supernatant was diluted with methanol by a factor of two. The concentration of the drug dissolved in the PB buffer solution was determined with an HPLC-b method.

[3] = 0.01 M PBS pH 7.4, 37° C., 5 min
[4] = 0.01 M PBS pH 7.4, 37° C., 15 min
[5] = 0.01 M PBS pH 7.4, 37° C., 30 min
[6] = 0.01 M PBS pH 7.4, 37° C., 24 h
[7] = phosphate buffer pH 5.5, 37° C., 0.25 h
[8] = phosphate buffer pH 5.5, 37° C., 0.5 h
[9] = phosphate buffer pH 5.5, 37° C., 0.75 h
[10] = phosphate buffer pH 5.5, 37° C., 1 h
[11] = phosphate buffer pH 5.5, 37° C., 2 h
[12] = phosphate buffer pH 5.5, 37° C., 4 h
[13] = phosphate buffer pH 5.5, 37° C., 6 h
[14] = phosphate buffer pH 5.5, 37° C., 8 h
[15] = phosphate buffer pH 5.5, 37° C., 24 h
[16] = phosphate buffer pH 5.5, 37° C., 32 h
[17] = phosphate buffer pH 5.5, 37° C., 48 h
[18] = phosphate buffer pH 5.5, 37° C., 72 h
[19] = phosphate buffer pH 6.5, 37° C., 0.25 h
[20] = phosphate buffer pH 6.5, 37° C., 0.5 h
[21] = phosphate buffer pH 6.5, 37° C., 0.75 h
[22] = phosphate buffer pH 6.5, 37° C., 1 h
[23] = phosphate buffer pH 6.5, 37° C., 2 h
[24] = phosphate buffer pH 6.5, 37° C., 4 h
[25] = phosphate buffer pH 6.5, 37° C., 6 h
[26] = phosphate buffer pH 6.5, 37° C., 8 h
[27] = phosphate buffer pH 6.5, 37° C., 24 h
[28] = phosphate buffer pH 6.5, 37° C., 32 h
[29] = phosphate buffer pH 6.5, 37° C., 48 h
[30] = phosphate buffer pH 6.5, 37° C., 72 h
[31] = phosphate buffer pH 7.4, 37° C., 0.25 h
[32] = phosphate buffer pH 7.4, 37° C., 0.5 h
[33] = phosphate buffer pH 7.4, 37° C., 0.75 h
[34] = phosphate buffer pH 7.4, 37° C., 1 h
[35] = phosphate buffer pH 7.4, 37° C., 2 h
[36] = phosphate buffer pH 7.4, 37° C., 4 h
[37] = phosphate buffer pH 7.4, 37° C., 6 h
[38] = phosphate buffer pH 7.4, 37° C., 8 h
[39] = phosphate buffer pH 7.4, 37° C., 24 h
[40] = phosphate buffer pH 7.4, 37° C., 32 h
[41] = phosphate buffer pH 7.4, 37° C., 48 h
[42] = phosphate buffer pH 7.4, 37° C., 72 h
[43] = phosphate buffer pH 8.0, 37° C., 0.25 h
[44] = phosphate buffer pH 8.0, 37° C., 0.5 h
[45] = phosphate buffer pH 8.0, 37° C., 0.75 h
[46] = phosphate buffer pH 8.0, 37° C., 1 h
[47] = phosphate buffer pH 8.0, 37° C., 2 h
[48] = phosphate buffer pH 8.0, 37° C., 4 h
[49] = phosphate buffer pH 8.0, 37° C., 6 h
[50] = phosphate buffer pH 8.0, 37° C., 8 h
[51] = phosphate buffer pH 8.0, 37° C., 24 h
[52] = phosphate buffer pH 8.0, 37° C., 32 h
[53] = phosphate buffer pH 8.0, 37° C., 48 h
[54] = phosphate buffer pH 8.0, 37° C., 72 h

CCCCN1CCCCC1C(=O)Nc1c(C)cccc1C.CCCCN1CCCCC1C(=O)Nc1c(C)cccc1C.O=C(O)c1cc2ccccc2c(Cc2c(O)c(C(=O)O)cc3ccccc23)c1O [Preparation Example 15, bis(bupivacaine) pamoate]
Compound concentration: Bupivacaine [1, 3]: 112.8 µM | Compound concentration: Pamoic acid [1, 3]: 57.2 µM | Compound concentration: Bupivacaine [1, 4]: 153.8 µM | Compound concentration: Pamoic acid [1, 4]: 77.9 µM | Compound concentration: Bupivacaine [1, 5]: 239.4 µM | Compound concentration: Pamoic acid [1, 5]: 120.2 µM | Compound concentration: Bupivacaine ([1]; 0.01 M PBS pH 7.4, 37° C., 1 h): 257.4 µM | Compound concentration: Pamoic acid ([1]; 0.01 M PBS pH 7.4, 37° C., 1 h): 127.8 µM | Compound concentration: Bupivacaine ([1]; 0.01 M PBS pH 7.4, 37° C., 2 h): 287.5 µM | Compound concentration: Pamoic acid ([1]; 0.01 M PBS pH 7.4, 37° C., 2 h): 141.5 µM | Compound concentration: Bupivacaine ([1]; 0.01 M PBS pH 7.4, 37° C., 6 h): 290.1 µM | Compound concentration: Pamoic acid ([1]; 0.01 M PBS pH 7.4, 37° C., 6 h): 146.7 µM | Compound concentration: Bupivacaine [1, 6]: 290.3 µM | Compound concentration: Pamoic acid [1, 6]: 143 µM | stability of the suspension (ratio between acid radical and basic group) ([1]; simulated body fluid): stable | solubility ([1]; simulated body fluid, 0.01 M PBS pH 7.4, 37° C.): about 0.3 mM | molar ratio of the solubility (bupivacaine to pamoic acid) ([2]; media at pH 5.5, pH 6.5, pH 7.4 and pH 8.0, remained for at least 72 hours): around 2.0 | Molar concentration of Bupivacaine [2, 7]: 0.050 mmol/L | Molar concentration of Pamoic acid [2, 7]: 0.020 mmol/L | Molar concentration of Bupivacaine [2, 8]: 0.070 mmol/L | Molar concentration of Pamoic acid [2, 8]: 0.034 mmol/L | Molar concentration of Bupivacaine [2, 9]: 0.140 mmol/L | Molar concentration of Pamoic acid [2, 9]: 0.070 mmol/L | Molar concentration of Bupivacaine [2, 10]: 0.196 mmol/L | Molar concentration of Pamoic acid [2, 10]: 0.092 mmol/L | Molar concentration of Bupivacaine [2, 11]: 0.198 mmol/L | Molar concentration of Pamoic acid [2, 11]: 0.094 mmol/L | Molar concentration of Bupivacaine [2, 12]: 0.198 mmol/L | Molar concentration of Pamoic acid [2, 12]: 0.092 mmol/L | Molar concentration of Bupivacaine [2, 13]: 0.198 mmol/L | Molar concentration of Pamoic acid [2, 13]: 0.094 mmol/L | Molar concentration of Bupivacaine [2, 14]: 0.198 mmol/L | Molar concentration of Pamoic acid [2, 14]: 0.092 mmol/L | Molar concentration of Bupivacaine [2, 15]: 0.192 mmol/L | Molar concentration of Pamoic acid [2, 15]: 0.088 mmol/L | Molar concentration of Bupivacaine [2, 16]: 0.196 mmol/L | Molar concentration of Pamoic acid [2, 16]: 0.092 mmol/L | Molar concentration of Bupivacaine [2, 17]: 0.198 mmol/L | Molar concentration of Pamoic acid [2, 17]: 0.092 mmol/L | Molar concentration of Bupivacaine [2, 18]: 0.190 mmol/L | Molar concentration of Pamoic acid [2, 18]: 0.084 mmol/L | Molar concentration of Bupivacaine [2, 19]: 0.046 mmol/L | Molar concentration of Pamoic acid [2, 19]: 0.024 mmol/L | Molar concentration of Bupivacaine [2, 20]: 0.076 mmol/L | Molar concentration of Pamoic acid [2, 20]: 0.038 mmol/L | Molar concentration of Bupivacaine [2, 21]: 0.138 mmol/L | Molar concentration of Pamoic acid [2, 21]: 0.076 mmol/L | Molar concentration of Bupivacaine [2, 22]: 0.202 mmol/L | Molar concentration of Pamoic acid [2, 22]: 0.106 mmol/L | Molar concentration of Bupivacaine [2, 23]: 0.204 mmol/L | Molar concentration of Pamoic acid [2, 23]: 0.108 mmol/L | Molar concentration of Bupivacaine [2, 24]: 0.202 mmol/L | Molar concentration of Pamoic acid [2, 24]: 0.106 mmol/L | Molar concentration of Bupivacaine [2, 25]: 0.198 mmol/L | Molar concentration of Pamoic acid [2, 25]: 0.104 mmol/L | Molar concentration of Bupivacaine [2, 26]: 0.198 mmol/L | Molar concentration of Pamoic acid [2, 26]: 0.106 mmol/L | Molar concentration of Bupivacaine [2, 27]: 0.198 mmol/L | Molar concentration of Pamoic acid [2, 27]: 0.106 mmol/L | Molar concentration of Bupivacaine [2, 28]: 0.202 mmol/L | Molar concentration of Pamoic acid [2, 28]: 0.106 mmol/L | Molar concentration of Bupivacaine [2, 29]: 0.200 mmol/L | Molar concentration of Pamoic acid [2, 29]: 0.106 mmol/L | Molar concentration of Bupivacaine [2, 30]: 0.196 mmol/L | Molar concentration of Pamoic acid [2, 30]: 0.100 mmol/L | Molar concentration of Bupivacaine [2, 31]: 0.038 mmol/L | Molar concentration of Pamoic acid [2, 31]: 0.020 mmol/L | Molar concentration of Bupivacaine [2, 32]: 0.080 mmol/L | Molar concentration of Pamoic acid [2, 32]: 0.042 mmol/L | Molar concentration of Bupivacaine [2, 33]: 0.192 mmol/L | Molar concentration of Pamoic acid [2, 33]: 0.100 mmol/L | Molar concentration of Bupivacaine [2, 34]: 0.240 mmol/L | Molar concentration of Pamoic acid [2, 34]: 0.134 mmol/L | Molar concentration of Bupivacaine [2, 35]: 0.246 mmol/L | Molar concentration of Pamoic acid [2, 35]: 0.134 mmol/L | Molar concentration of Bupivacaine [2, 36]: 0.242 mmol/L | Molar concentration of Pamoic acid [2, 36]: 0.134 mmol/L | Molar concentration of Bupivacaine [2, 37]: 0.234 mmol/L | Molar concentration of Pamoic acid [2, 37]: 0.13 mmol/L | Molar concentration of Bupivacaine [2, 38]: 0.232 mmol/L | Molar concentration of Pamoic acid [2, 38]: 0.128 mmol/L | Molar concentration of Bupivacaine [2, 39]: 0.226 mmol/L | Molar concentration of Pamoic acid [2, 39]: 0.124 mmol/L | Molar concentration of Bupivacaine [2, 40]: 0.226 mmol/L | Molar concentration of Pamoic acid [2, 40]: 0.124 mmol/L | Molar concentration of Bupivacaine [2, 41]: 0.230 mmol/L | Molar concentration of Pamoic acid [2, 41]: 0.126 mmol/L | Molar concentration of Bupivacaine [2, 42]: 0.224 mmol/L | Molar concentration of Pamoic acid [2, 42]: 0.120 mmol/L | Molar concentration of Bupivacaine [2, 43]: 0.036 mmol/L | Molar concentration of Pamoic acid [2, 43]: 0.020 mmol/L | Molar concentration of Bupivacaine [2, 44]: 0.092 mmol/L | Molar concentration of Pamoic acid [2, 44]: 0.050 mmol/L | Molar concentration of Bupivacaine [2, 45]: 0.252 mmol/L | Molar concentration of Pamoic acid [2, 45]: 0.138 mmol/L | Molar concentration of Bupivacaine [2, 46]: 0.328 mmol/L | Molar concentration of Pamoic acid [2, 46]: 0.182 mmol/L | Molar concentration of Bupivacaine [2, 47]: 0.336 mmol/L | Molar concentration of Pamoic acid [2, 47]: 0.186 mmol/L | Molar concentration of Bupivacaine [2, 48]: 0.338 mmol/L | Molar concentration of Pamoic acid [2, 48]: 0.192 mmol/L | Molar concentration of Bupivacaine [2, 49]: 0.338 mmol/L | Molar concentration of Pamoic acid [2, 49]: 0.190 mmol/L | Molar concentration of Bupivacaine [2, 50]: 0.334 mmol/L | Molar concentration of Pamoic acid [2, 50]: 0.186 mmol/L | Molar concentration of Bupivacaine [2, 51]: 0.326 mmol/L | Molar concentration of Pamoic acid [2, 51]: 0.182 mmol/L | Molar concentration of Bupivacaine [2, 52]: 0.328 mmol/L | Molar concentration of Pamoic acid [2, 52]: 0.186 mmol/L | Molar concentration of Bupivacaine [2, 53]: 0.336 mmol/L | Molar concentration of Pamoic acid [2, 53]: 0.186 mmol/L | Molar concentration of Bupivacaine [2, 54]: 0.336 mmol/L | Molar concentration of Pamoic acid [2, 54]: 0.184 mmol/L
